Results on seven molecules are retold here after PubChem BioAssay (NCI).

Some test systems named below: MDA-MB-435; NCI-H460 lung; NCI/ADR-RES ovarian; OVCAR-4 ovarian; PC-3 prostate; SF-268 CNS; SF-295 CNS; SK-MEL-5 melanoma; SNB-19 CNS; SNB-75 CNS.
Common to all, as to assay: NCI tumour cell line growth inhibition, 48 h

Values joined by “and” are separate entries in the source; they are usually repeats but may differ in a detail not shown here. Equal entries are not always repeated.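 Where inhibition never reached the appropriate level, the endpoint shown equals the highest concentration tested. Otherwise, values were interpolated linearly from a five-concentration, 48-hour dose response in 96-well plates. At the GI50, growth is halved. TGI is the concentration that stops growth completely.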

With `COc1cc(O)c([C@@H]2C[C@H](CCc3ccc(O)cc3)O[C@H](c3ccc(O)cc3)C2)c(O)c1C(=O)/C=C/c1ccc(O)cc1`, the GI50 was 3140 nM in the assay with MDA-MB-435; 2710 nM with NCI-H460 lung; 5530 nM with NCI/ADR-RES ovarian; 3800 nM in the assay with OVCAR-4 ovarian; 2450 nM with PC-3 prostate; 2860 nM with SF-268 CNS. Moreover, the GI50 with SF-295 CNS is 3830 nM; with SK-MEL-5 melanoma, 2110 nM; in the assay with SNB-19 CNS it was 3370 nM; in the assay on SNB-75 CNS, 2860 nM. Further, the TGI with MDA-MB-435 came to 10800 nM; with NCI-H460 lung it was 7490 nM; with NCI/ADR-RES ovarian it was 25500 nM; in the assay on OVCAR-4 ovarian it was 29500 nM; with PC-3 prostate it was 6940 nM; with SF-268 CNS, 24400 nM. In addition, the TGI in the assay on SF-295 CNS amounted to 17900 nM; in the assay on SK-MEL-5 melanoma it was 6050 nM; in the assay on SNB-19 CNS, 10600 nM; with SNB-75 CNS it was 8220 nM.
Turning to `COc1ccc2nc(N/N=C(\C)c3ccccn3)cc(C)c2c1`, the GI50 was 408 nM in the assay on MDA-MB-435; 118 nM in the assay with NCI-H460 lung; 274 nM in the assay on NCI/ADR-RES ovarian; 156 nM with OVCAR-4 ovarian; 433 nM in the assay with PC-3 prostate; 228 nM in the assay with SF-268 CNS. Further, the GI50 was 48.7 nM in the assay with SF-295 CNS, 244 nM in the assay on SK-MEL-5 melanoma, 382 nM with SNB-19 CNS and 1820 nM in the assay with SNB-75 CNS. Moreover, the TGI in the assay on MDA-MB-435 worked out at 1690 nM; in the assay with NCI-H460 lung, 1130 nM; in the assay with OVCAR-4 ovarian it was 2570 nM; in the assay with PC-3 prostate it was 5680 nM; in the assay on SF-268 CNS, 1460 nM; in the assay on SF-295 CNS, 391 nM. Moreover, the TGI with SK-MEL-5 melanoma stood at 1120 nM; with SNB-19 CNS, 2120 nM; in the assay with SNB-75 CNS, 7490 nM.
Take `C[C@@H]1C[C@@H](O)[C@]2(O)O[C@@H]3C[C@@]4(C=O)[C@@H](CC[C@@H]5[C@@H]4CC[C@]4(C)[C@@H](C6=CC(=O)OC6)CC[C@]54O)C[C@H]3O[C@@H]2O1`: the TGI is 157 nM in the assay on MDA-MB-435; 19.5 nM and 81.7 nM and 19.2 nM with NCI-H460 lung; 118 nM with NCI/ADR-RES ovarian; 53.1 nM and 12.8 nM with OVCAR-4 ovarian; 518 nM in the assay with PC-3 prostate; 15.1 nM and 24.7 nM and 47.4 nM with SF-268 CNS. Further, the TGI is 61.6 nM and 189 nM and 139 nM with SF-295 CNS; 30.3 nM and 55 nM and 58.4 nM with SK-MEL-5 melanoma; 145 nM and 217 nM and 184 nM in the assay on SNB-19 CNS; 91.9 nM and 220 nM and 288 nM with SNB-75 CNS. The GI50 in the assay on NCI-H460 lung is 22.9 nM; in the assay with OVCAR-4 ovarian, 5.6 nM; in the assay on SF-268 CNS it was 6.21 nM and 5 nM; in the assay on SF-295 CNS it was 36.5 nM and 8.69 nM; in the assay on SK-MEL-5 melanoma it was 24.7 nM; with SNB-19 CNS, 101 nM and 19.7 nM. For the same molecule, the GI50 in the assay on SNB-75 CNS is 51 nM.
As for `CCC[CH2][Sn-]([CH2]CCC)([CH2]CCC)[O]c1cc(Cl)c(Cl)cc1Cl`, the GI50 is 160 nM in the assay with MDA-MB-435; 165 nM with NCI-H460 lung; 163 nM with NCI/ADR-RES ovarian; 148 nM in the assay with OVCAR-4 ovarian; 207 nM in the assay on PC-3 prostate; 229 nM in the assay on SF-268 CNS. For the same molecule, the GI50 in the assay on SF-295 CNS is 263 nM; in the assay with SK-MEL-5 melanoma, 168 nM; in the assay on SNB-19 CNS, 143 nM; in the assay with SNB-75 CNS, 231 nM. Further, the TGI is 359 nM with MDA-MB-435; 344 nM in the assay on NCI-H460 lung; 385 nM in the assay with NCI/ADR-RES ovarian; 398 nM in the assay with OVCAR-4 ovarian; 458 nM in the assay on PC-3 prostate; 1050 nM in the assay on SF-268 CNS. For the same molecule, the TGI in the assay with SF-295 CNS stood at 732 nM; in the assay with SK-MEL-5 melanoma, 335 nM; with SNB-19 CNS, 445 nM; with SNB-75 CNS it was 1140 nM.
`COc1cc(/C(C#N)=C/c2ccc3c(c2OC)OCO3)cc2c1OCO2`: the GI50 was 20.9 nM with MDA-MB-435; 45.2 nM with NCI-H460 lung; 34.6 nM in the assay on NCI/ADR-RES ovarian; 1450 nM in the assay with OVCAR-4 ovarian; 96.7 nM in the assay on PC-3 prostate; 96.9 nM in the assay on SF-268 CNS. Also, the GI50 with SF-295 CNS is 42.8 nM; in the assay with SK-MEL-5 melanoma, 54.6 nM; in the assay with SNB-19 CNS it was 236 nM; with SNB-75 CNS it was 87.8 nM. In addition, the TGI in the assay on MDA-MB-435 was 66.4 nM; in the assay on NCI-H460 lung, 14200 nM; with NCI/ADR-RES ovarian it was 381 nM; in the assay on OVCAR-4 ovarian it was more than 100000 nM; in the assay on PC-3 prostate it was more than 78400 nM; in the assay on SF-268 CNS it was 15800 nM. The TGI in the assay on SF-295 CNS is 4360 nM; in the assay on SK-MEL-5 melanoma, more than 46400 nM; in the assay on SNB-19 CNS, 20400 nM; in the assay on SNB-75 CNS, 3420 nM.
As to `CS(=O)(=O)CCNCc1nc(-c2ccc3ncnc(Nc4ccc(F)c(Cl)c4)c3c2)cs1`, the GI50 in the assay on MDA-MB-435 is 18000 nM; in the assay on NCI-H460 lung, 18700 nM; in the assay on NCI/ADR-RES ovarian, 13900 nM; with OVCAR-4 ovarian it was 14700 nM; in the assay on PC-3 prostate it was 14700 nM; in the assay with SF-268 CNS, more than 17900 nM. In addition, the GI50 was more than 25000 nM in the assay on SF-295 CNS, 11500 nM with SK-MEL-5 melanoma, more than 25000 nM with SNB-19 CNS and more than 18300 nM in the assay with SNB-75 CNS. Also, the TGI with MDA-MB-435, in the assay with NCI-H460 lung, in the assay with NCI/ADR-RES ovarian, with OVCAR-4 ovarian, with PC-3 prostate and in the assay on SF-268 CNS was more than 25000 nM throughout. The TGI in the assay on SF-295 CNS, with SK-MEL-5 melanoma, in the assay with SNB-19 CNS and in the assay on SNB-75 CNS was more than 25000 nM in each case.
With `O=C(CN1CCN(c2ncccn2)CC1)Nc1ccc(Cl)cc1C(=O)c1ccccc1Cl`, the GI50 in the assay on MDA-MB-435 was more than 100000 nM; with NCI-H460 lung, more than 100000 nM; with NCI/ADR-RES ovarian, more than 100000 nM; with OVCAR-4 ovarian, 43900 nM; in the assay with PC-3 prostate, 9470 nM; in the assay with SF-268 CNS, more than 100000 nM. In addition, the GI50 is more than 100000 nM in the assay with SF-295 CNS, 52400 nM in the assay on SK-MEL-5 melanoma, more than 100000 nM in the assay with SNB-19 CNS and 54900 nM with SNB-75 CNS. Besides, the TGI in the assay with MDA-MB-435, in the assay on NCI-H460 lung, with NCI/ADR-RES ovarian, in the assay on OVCAR-4 ovarian, with PC-3 prostate and in the assay on SF-268 CNS was more than 100000 nM throughout. Besides, the TGI with SF-295 CNS, in the assay on SK-MEL-5 melanoma, with SNB-19 CNS and in the assay with SNB-75 CNS was more than 100000 nM each time.
